Results published in paper PMC5218480 (PLoS ONE, 2017).

System: MV-4-11 cells
Assay: Gene expression microarray analysis (Affymetrix PrimeView) and GSEA
Format: cell-based, human
Set-up: RFU PODN (11730768_x_at) / Fold change /veh PODN (11730768_x_at) / RFU LINC00158 (11744669_a_at) / Fold change /veh LINC00158 (11744669_a_at) / RFU DUSP10 (11751237_a_at) / Fold change /veh DUSP10 (11751237_a_at) / RFU ID3 (11757404_x_at) / Fold change /veh ID3 (11757404_x_at) / RFU PLEKHG5 (11737974_s_at) / Fold change /veh PLEKHG5 (11737974_s_at) / RFU LRRC4B (11730491_at) / Fold change /veh LRRC4B (11730491_at) / RFU GIMAP4 (11747438_a_at) / Fold change /veh GIMAP4 (11747438_a_at) / RFU KRT8 (11758183_x_at) / Fold change /veh KRT8 (11758183_x_at) / RFU CNN1 (11734310_a_at) / Fold change /veh CNN1 (11734310_a_at) / RFU VPS37D (11726825_at) / Fold change /veh VPS37D (11726825_at) / RFU C10orf10 (11716522_x_at) / Fold change /veh C10orf10 (11716522_x_at) / RFU KIR2DL2 /// KIR2DL4 /// KIR2DL5A /// KIR2DL5B /// KIR2DS1 /// KIR2DS2 /// KIR2DS3 /// KIR2DS4 /// KIR3DL3 /// KIR3DL3 /// KIR3DS1 (11738374_at) / Fold change /veh KIR2DL2 /// KIR2DL4 /// KIR2DL5A /// KIR2DL5B /// KIR2DS1 /// KIR2DS2 /// KIR2DS3 /// KIR2DS4 /// KIR3DL3 /// KIR3DL3 /// KIR3DS1 (11738374_at) / RFU C1QL1 (11718748_at) / Fold change /veh C1QL1 (11718748_at) / RFU TMPRSS4 (11747572_a_at) / Fold change /veh TMPRSS4 (11747572_a_at) / RFU HAMP (11756126_x_at) / Fold change /veh HAMP (11756126_x_at) / RFU RNFT2 (11725882_a_at) / Fold change /veh RNFT2 (11725882_a_at) / RFU NR4A2 (11747474_a_at) / Fold change /veh NR4A2 (11747474_a_at) / RFU ABCC12 (11746883_a_at) / Fold change /veh ABCC12 (11746883_a_at) / RFU TMEM136 (11760407_x_at) / Fold change /veh TMEM136 (11760407_x_at) / RFU CLDN22 /// WWC2 (11732394_at) / Fold change /veh CLDN22 /// WWC2 (11732394_at) / RFU HLA-DPB1 (11760878_x_at) / Fold change /veh HLA-DPB1 (11760878_x_at) / RFU SPINT1 (11716480_a_at) / Fold change /veh SPINT1 (11716480_a_at) / RFU GAP43 (11754022_s_at) / Fold change /veh GAP43 (11754022_s_at) / RFU A4GNT (11735810_at) / Fold change /veh A4GNT (11735810_at) / RFU PRB3 (11715151_x_at) / Fold change /veh PRB3 (11715151_x_at) / RFU TUBB4B (11761932_at) / Fold change /veh TUBB4B (11761932_at) / RFU CAPN14 (11732068_a_at) / Fold change /veh CAPN14 (11732068_a_at) / RFU TMCC2 (11721928_a_at) / Fold change /veh TMCC2 (11721928_a_at) / RFU IRGQ (11745062_a_at) / Fold change /veh IRGQ (11745062_a_at) / RFU FAM174B (11720279_a_at) / Fold change /veh FAM174B (11720279_a_at) / RFU TMPRSS4 (11748680_a_at) / Fold change /veh TMPRSS4 (11748680_a_at) / RFU FAM212B (11763350_a_at) / Fold change /veh FAM212B (11763350_a_at) / RFU PLEKHG5 (11743358_a_at) / Fold change /veh PLEKHG5 (11743358_a_at) / RFU ZSCAN30 (11745921_a_at) / Fold change /veh ZSCAN30 (11745921_a_at) / RFU CMKLR1 (11741424_a_at) / Fold change /veh CMKLR1 (11741424_a_at) / RFU LOC101060620 /// MAPK8IP1 (11723275_at) / Fold change /veh LOC101060620 /// MAPK8IP1 (11723275_at) / RFU SPTSSB (11747773_x_at) / Fold change /veh SPTSSB (11747773_x_at) / RFU PRSS12 (11739890_at) / Fold change /veh PRSS12 (11739890_at) / RFU BIN1 (11741810_x_at) / Fold change /veh BIN1 (11741810_x_at) / RFU WNT11 (11732464_a_at) / Fold change /veh WNT11 (11732464_a_at) / RFU C10orf10 (11716521_a_at) / Fold change /veh C10orf10 (11716521_a_at) / RFU C5orf56 (11738089_at) / Fold change /veh C5orf56 (11738089_at) / RFU CYB561 (11721691_x_at) / Fold change /veh CYB561 (11721691_x_at) / RFU ANKRD19P (11752326_a_at) / Fold change /veh ANKRD19P (11752326_a_at) / RFU OR2T12 /// OR2T33 /// OR2T8 (11738714_s_at) / Fold change /veh OR2T12 /// OR2T33 /// OR2T8 (11738714_s_at) / RFU VCAN (11748164_a_at) / Fold change /veh VCAN (11748164_a_at) / RFU JSRP1 (11732532_at) / Fold change /veh JSRP1 (11732532_at) / RFU KRTAP10-11 (11738290_x_at) / Fold change /veh KRTAP10-11 (11738290_x_at) / RFU MYO3A (11730013_a_at) / Fold change /veh MYO3A (11730013_a_at) / RFU EBF3 (11725865_a_at) / Fold change /veh EBF3 (11725865_a_at) / RFU CAMK2N1 (11719241_x_at) / Fold change /veh CAMK2N1 (11719241_x_at) / RFU C5orf56 (11738088_a_at) / Fold change /veh C5orf56 (11738088_a_at) / RFU OLFML3 (11715873_a_at) / Fold change /veh OLFML3 (11715873_a_at) / RFU LOC100653217 /// NTM (11731650_a_at) / Fold change /veh LOC100653217 /// NTM (11731650_a_at) / RFU MAPK11 (11762145_a_at) / Fold change /veh MAPK11 (11762145_a_at) / RFU FIZ1 (11724087_x_at) / Fold change /veh FIZ1 (11724087_x_at) / RFU OASL (11726364_x_at) / Fold change /veh OASL (11726364_x_at) / RFU SOX15 (11748057_x_at) / Fold change /veh SOX15 (11748057_x_at) / RFU CD79A (11719716_a_at) / Fold change /veh CD79A (11719716_a_at) / RFU HIST1H1D (11736915_at) / Fold change /veh HIST1H1D (11736915_at) / RFU CASKIN2 (11723855_a_at) / Fold change /veh CASKIN2 (11723855_a_at) / RFU LOC730098 (11760151_x_at) / Fold change /veh LOC730098 (11760151_x_at) / RFU OR4N2 (11742367_at) / Fold change /veh OR4N2 (11742367_at) / RFU PRRT2 (11749266_a_at) / Fold change /veh PRRT2 (11749266_a_at) / RFU SNX32 (11753110_a_at) / Fold change /veh SNX32 (11753110_a_at) / RFU CDHR5 (11726645_a_at) / Fold change /veh CDHR5 (11726645_a_at) / RFU RCAN1 (11760418_a_at) / Fold change /veh RCAN1 (11760418_a_at) / RFU FAM167A (11723789_a_at) / Fold change /veh FAM167A (11723789_a_at) / RFU FAM26E (11764081_at) / Fold change /veh FAM26E (11764081_at) / RFU ISYNA1 (11749810_s_at) / Fold change /veh ISYNA1 (11749810_s_at) / RFU ACY1 (11761880_at) / Fold change /veh ACY1 (11761880_at) / RFU 11764098_at / Fold change /veh 11764098_at / RFU SAMD14 (11745864_x_at) / Fold change /veh SAMD14 (11745864_x_at) / RFU NPB (11741838_a_at) / Fold change /veh NPB (11741838_a_at) / RFU TMPRSS6 (11731388_a_at) / Fold change /veh TMPRSS6 (11731388_a_at) / RFU KRTAP10-2 (11738614_at) / Fold change /veh KRTAP10-2 (11738614_at) / RFU ARHGAP8 /// PRR5-ARHGAP8 (11727945_x_at) / Fold change /veh ARHGAP8 /// PRR5-ARHGAP8 (11727945_x_at) / RFU KRTAP5-7 /// NADSYN1 (11734609_at) / Fold change /veh KRTAP5-7 /// NADSYN1 (11734609_at) / RFU RASL12 (11751679_a_at) / Fold change /veh RASL12 (11751679_a_at) / RFU CDKN2B (11736163_a_at) / Fold change /veh CDKN2B (11736163_a_at) / RFU PRF1 (11729649_at) / Fold change /veh PRF1 (11729649_at) / RFU, ZNF638 /// ZNF638-IT1 / Fold change vs veh, ZNF638 /// ZNF638-IT1 / RFU, PANK3 / Fold change vs veh, PANK3 / RFU, SH3YL1 / Fold change vs veh, SH3YL1 / RFU, ZEB2 / Fold change vs veh, ZEB2 / RFU, NRIP1 / Fold change vs veh, NRIP1 / RFU, PTTG1IP / Fold change vs veh, PTTG1IP / RFU, CAPN2 / Fold change vs veh, CAPN2 / RFU, MED14 / Fold change vs veh, MED14 / RFU, SNORA58 / Fold change vs veh, SNORA58 / RFU, C1orf63 / Fold change vs veh, C1orf63 / RFU, LRRFIP1 / Fold change vs veh, LRRFIP1 / RFU, NDUFAF7 / Fold change vs veh, NDUFAF7 / RFU, SLC12A2 / Fold change vs veh, SLC12A2 / RFU, IBTK / Fold change vs veh, IBTK / RFU, ESF1 / Fold change vs veh, ESF1 / Fold change vs veh, TMEM50B / RFU, TAOK1 / Fold change vs veh, TAOK1 / RFU, ACBD3 / Fold change vs veh, ACBD3 / RFU, TMA16 / Fold change vs veh, TMA16 / RFU, RWDD3 / Fold change vs veh, RWDD3 / RFU, BCAT1 / Fold change vs veh, BCAT1 / RFU, EDEM3 / Fold change vs veh, EDEM3 / RFU, TMEM33 / Fold change vs veh, TMEM33 / RFU, WDR75 / Fold change vs veh, WDR75 / RFU, AHCTF1 / Fold change vs veh, AHCTF1 / RFU, TFRC / Fold change vs veh, TFRC / RFU, ZDHHC17 / Fold change vs veh, ZDHHC17 / RFU, NOM1 / Fold change vs veh, NOM1 / RFU, ARL8B / Fold change vs veh, ARL8B / RFU, ZBTB11 / Fold change vs veh, ZBTB11 / RFU, TAMM41 / Fold change vs veh, TAMM41 / RFU, KIAA1704 /// LOC100996395 / Fold change vs veh, KIAA1704 /// LOC100996395 / RFU, ING1 / Fold change vs veh, ING1 / RFU, TRMT61B / Fold change vs veh, TRMT61B / RFU, FUBP3 / Fold change vs veh, FUBP3 / RFU, TP53 / Fold change vs veh, TP53 / RFU, TNKS2 / Fold change vs veh, TNKS2 / RFU, ZFP14 / Fold change vs veh, ZFP14 / RFU, ACTR2 / Fold change vs veh, ACTR2 / RFU, PPP3R1 / Fold change vs veh, PPP3R1 / RFU, PIK3R1 / Fold change vs veh, PIK3R1 / RFU, HNRNPA1 / Fold change vs veh, HNRNPA1 / RFU, RNF170 / Fold change vs veh, RNF170 / RFU, ZNF28 / Fold change vs veh, ZNF28 / RFU, RNGTT / Fold change vs veh, RNGTT / RFU, OGT / Fold change vs veh, OGT / RFU, BRD1 / Fold change vs veh, BRD1 / RFU, MARS / Fold change vs veh, MARS / RFU, ZNF655 / Fold change vs veh, ZNF655 / RFU, FAHD1 / Fold change vs veh, FAHD1 / RFU, BDP1 / Fold change vs veh, BDP1 / RFU, LRRCC1 / Fold change vs veh, LRRCC1 / RFU, ARID1A / Fold change vs veh, ARID1A / RFU, ZNF146 / Fold change vs veh, ZNF146 / RFU, ZNF330 / Fold change vs veh, ZNF330 / RFU, GPN3 / Fold change vs veh, GPN3 / RFU, C9orf123 / Fold change vs veh, C9orf123 / RFU, N4BP2L2 / Fold change vs veh, N4BP2L2 / RFU, ARFIP1 / Fold change vs veh, ARFIP1 / RFU, FAM179B / Fold change vs veh, FAM179B / RFU, BCL10 / Fold change vs veh, BCL10 / RFU, UHRF1BP1L / Fold change vs veh, UHRF1BP1L / RFU, BET1 / Fold change vs veh, BET1 / RFU, CNOT2 / Fold change vs veh, CNOT2 / RFU, ZNF268 / Fold change vs veh, ZNF268 / Fold change vs veh, ZNF507 / RFU, DGCR2 / Fold change vs veh, DGCR2 / RFU, WDSUB1 / Fold change vs veh, WDSUB1 / Fold change vs veh, HSP90B1 /// MIR3652 / RFU, ADSS / Fold change vs veh, ADSS / RFU, GK / Fold change vs veh, GK / RFU, ZNF148 / Fold change vs veh, ZNF148 / RFU, TAF9 / Fold change vs veh, TAF9 / RFU, SLC1A5 / Fold change vs veh, SLC1A5 / RFU, SLMO2 / Fold change vs veh, SLMO2 / RFU, ABCC4 / Fold change vs veh, ABCC4 / RFU, LOC101060439 /// RAP1B / Fold change vs veh, LOC101060439 /// RAP1B / RFU, RFX7 / Fold change vs veh, RFX7 / RFU, GTPBP10 / Fold change vs veh, GTPBP10 / RFU, CNEP1R1 / Fold change vs veh, CNEP1R1 / RFU, BIVM-ERCC5 /// ERCC5 / Fold change vs veh, BIVM-ERCC5 /// ERCC5 / RFU, ILF3 / Fold change vs veh, ILF3 / RFU 11762660_at / Fold change /veh 11762660_at / RFU VCAN (11757783_s_at) / Fold change /veh VCAN (11757783_s_at) / RFU DDX43 (11728927_at) / Fold change /veh DDX43 (11728927_at) / RFU KRT8 (11758188_x_at) / Fold change /veh KRT8 (11758188_x_at) / RFU NKD1 (11759106_at) / Fold change /veh NKD1 (11759106_at) / RFU SRD5A1 (11742802_a_at) / Fold change /veh SRD5A1 (11742802_a_at) / RFU TPSAB1 /// TPSB2 (11721975_s_at) / Fold change /veh TPSAB1 /// TPSB2 (11721975_s_at) / RFU GSTM3 (11746129_a_at) / Fold change /veh GSTM3 (11746129_a_at) / RFU IL23R (11737362_x_at) / Fold change /veh IL23R (11737362_x_at) / RFU TMEM51 (11727254_a_at) / Fold change /veh TMEM51 (11727254_a_at) / RFU PIWIL2 (11732686_x_at) / Fold change /veh PIWIL2 (11732686_x_at) / RFU ORM1 (11744905_x_at) / Fold change /veh ORM1 (11744905_x_at) / RFU CCDC152 (11743942_at) / Fold change /veh CCDC152 (11743942_at) / RFU ECM1 (11717891_a_at) / Fold change /veh ECM1 (11717891_a_at) / RFU IL23R (11748794_a_at) / Fold change /veh IL23R (11748794_a_at) / RFU TNFAIP8L3 (11732012_x_at) / Fold change /veh TNFAIP8L3 (11732012_x_at) / RFU MBOAT4 (11741988_at) / Fold change /veh MBOAT4 (11741988_at) / RFU 11764193_at / Fold change /veh 11764193_at / RFU TMEM53 (11763286_at) / Fold change /veh TMEM53 (11763286_at) / RFU MAGEB2 (11727129_at) / Fold change /veh MAGEB2 (11727129_at) / RFU TMEM200A (11744735_a_at) / Fold change /veh TMEM200A (11744735_a_at) / RFU CCDC152 (11751479_a_at) / Fold change /veh CCDC152 (11751479_a_at) / RFU FAM211A (11726209_a_at) / Fold change /veh FAM211A (11726209_a_at) / RFU RGS16 (11746705_a_at) / Fold change /veh RGS16 (11746705_a_at) / RFU VCAN (11755009_s_at) / Fold change /veh VCAN (11755009_s_at) / RFU RHOB (11743442_s_at) / Fold change /veh RHOB (11743442_s_at) / RFU RGS16 (11720943_a_at) / Fold change /veh RGS16 (11720943_a_at) / RFU RGS16 (11720944_at) / Fold change /veh RGS16 (11720944_at) / RFU, VPS4B / Fold change vs veh, VPS4B / RFU, CREB1 / Fold change vs veh, CREB1 / RFU, DNAJC13 / Fold change vs veh, DNAJC13 / RFU, GNAQ / Fold change vs veh, GNAQ / RFU, CDK5R1 / Fold change vs veh, CDK5R1 / RFU, ZRANB3 / Fold change vs veh, ZRANB3 / RFU, CUL4A / Fold change vs veh, CUL4A / RFU, CCNY / Fold change vs veh, CCNY / RFU, UFL1 / Fold change vs veh, UFL1 / RFU, COG3 / Fold change vs veh, COG3 / RFU, DIAPH2 / Fold change vs veh, DIAPH2 / RFU, SKA2 / Fold change vs veh, SKA2 / RFU, AFF3 / Fold change vs veh, AFF3 / RFU, LMF1 / Fold change vs veh, LMF1 / RFU, IPO11 / Fold change vs veh, IPO11 / RFU, DFFB / Fold change vs veh, DFFB / RFU, FOXP1 / Fold change vs veh, FOXP1 / RFU, CARD8 / Fold change vs veh, CARD8 / RFU, STRN3 / Fold change vs veh, STRN3 / RFU, ADK / Fold change vs veh, ADK / RFU, RASSF2 / Fold change vs veh, RASSF2 / RFU, WIPF1 / Fold change vs veh, WIPF1 / RFU, LARP1B / Fold change vs veh, LARP1B / RFU, RASA1 / Fold change vs veh, RASA1 / RFU, RB1 / Fold change vs veh, RB1 / RFU, PPFIA1 / Fold change vs veh, PPFIA1 / RFU, MAT2A / Fold change vs veh, MAT2A / RFU, CCT5 / Fold change vs veh, CCT5 / RFU, WDR92 / Fold change vs veh, WDR92 / RFU, CUX1 / Fold change vs veh, CUX1 / RFU, TTC7A / Fold change vs veh, TTC7A / RFU, TMEM135 / Fold change vs veh, TMEM135 / RFU, DEPTOR / Fold change vs veh, DEPTOR / RFU, CPM / Fold change vs veh, CPM / RFU, DNAJB6 / Fold change vs veh, DNAJB6 / RFU, CACNA2D3 / Fold change vs veh, CACNA2D3 / RFU, DTX4 / Fold change vs veh, DTX4 / RFU, TFCP2 / Fold change vs veh, TFCP2 / RFU, GMCL1 /// GMCL1P1 / Fold change vs veh, GMCL1 /// GMCL1P1 / RFU, AEBP2 / Fold change vs veh, AEBP2 / RFU, SNHG1 /// SNORD22 /// SNORD25 /// SNORD26 /// SNORD27 /// SNORD28 /// SNORD29 /// SNORD31 / Fold change vs veh, SNHG1 /// SNORD22 /// SNORD25 /// SNORD26 /// SNORD27 /// SNORD28 /// SNORD29 /// SNORD31 / Fold change (Aza/veh), C12orf56 (ProbeSet 11735607_a_at) / Fold change (ACY-1035/veh), C12orf56 (ProbeSet 11735607_a_at) / Fold change (Aza/veh), FGFR1OP (ProbeSet 11751329_s_at) / Fold change (ACY-1035/veh), FGFR1OP (ProbeSet 11751329_s_at) / Fold change (Aza/veh), VPS36 (ProbeSet 11739960_a_at) / Fold change (ACY-1035/veh), VPS36 (ProbeSet 11739960_a_at) / RFU SYPL1 (11715823_x_at) / Fold change /veh SYPL1 (11715823_x_at) / RFU IGFBP7 (11715501_s_at) / Fold change /veh IGFBP7 (11715501_s_at) / RFU REEP3 (11722064_at) / Fold change /veh REEP3 (11722064_at) / RFU IGLL1 (11728026_x_at) / Fold change /veh IGLL1 (11728026_x_at): dose or concentration left out as unconfirmed
Conditions: ProbeSet 11725885_a_at; LIST B

With Nc1ccc(-c2cccs2)cc1NC(=O)c1ccc2c(c1)cc(C1CC1)n2CCN1CCOCC1 [ACY-1035] as the compound, how does the “RFU, CNEP1R1” value read?
Its value is 81.80 RFU.
